From ChEMBL document CHEMBL1150051, “Antiviral (RNA) activity of selected Amaryllidaceae isoquinoline constituents and synthesis of related substances” (J Nat Prod, 1992)
Converted amounts (≈) assume the structure as drawn. The source made the active and inactive calls. The calls are words filed in the database; no cut-off is given here.

Columns and labels:
Mus musculus [1] = assay: Toxicity in C57BL/6 mouse assessed as change in body weight at 5 mg/kg/day, ip twice daily for 9 days administered 1 day before infection measured after 28 days post infection; format: organism-based; design: route intraperitoneal; conditions: in vivo, 672 h
Mus musculus [2] = assay: Toxicity in C57BL/6 mouse assessed as change in body weight at 4 mg/kg/day, ip twice daily for 9 days administered 1 day before infection measured after 28 days post infection; format: organism-based; design: route intraperitoneal; conditions: in vivo, 672 h
Mus musculus [3] = assay: Toxicity in C57BL/6 mouse assessed as mortality at 2 mg/kg/day, sc once daily for 7 days; format: organism-based; design: route subcutaneous; conditions: in vivo, 168 h
[4] = tested on: Japanese encephalitis virus; assay: Antiviral activity against Japanese encephalitis virus Beijing infected in low viral dose challenge C57BL/6 mouse model assessed as survival rate at 4 mg/kg/day, sc once daily for 7 days administered 1 day before infection measured after 28 days post infection relative to control; format: functional; conditions: route subcutaneous
Mus musculus [5] = assay: Toxicity in C57BL/6 mouse assessed as average day of death at 6 mg/kg/day, sc once daily for 7 days; format: organism-based; design: route subcutaneous; conditions: in vivo, 168 h
Mus musculus [6] = assay: Toxicity in C57BL/6 mouse assessed as change in body weight at 8 mg/kg/day, ip twice daily for 9 days administered 1 day before infection measured after 28 days post infection; format: organism-based; design: route intraperitoneal; conditions: in vivo, 672 h
[7] = tested on: Japanese encephalitis virus; assay: Antiviral activity against Japanese encephalitis virus Beijing infected in high viral dose challenge C57BL/6 mouse model assessed as average day of death at 2 mg/kg/day, ip twice daily for 9 days administered 1 day before infection measured after 28 days post infection; format: functional; conditions: route intraperitoneal
[8] = Therapeutic index, ratio of TC50 for african green monkey Vero cells to IC50 for Dengue type 4 virus; format: cell-based; conditions: read-out: TI
Mus musculus [9] = assay: Toxicity in C57BL/6 mouse assessed as mortality at 4 mg/kg/day, ip twice daily for 9 days; format: organism-based; design: route intraperitoneal; conditions: in vivo, 216 h
[10] = tested on: Japanese encephalitis virus; assay: Antiviral activity against Japanese encephalitis virus Beijing infected in high viral dose challenge C57BL/6 mouse model assessed as survival rate at 6 mg/kg/day, ip twice daily for 9 days administered 1 day before infection measured after 28 days post infection relative to control; format: functional; conditions: route intraperitoneal
Mus musculus [11] = assay: Toxicity in C57BL/6 mouse assessed as mortality at 4 mg/kg/day, sc once daily for 7 days; format: organism-based; design: route subcutaneous; conditions: in vivo, 168 h
[12] = tested on: Japanese encephalitis virus; assay: Antiviral activity against Japanese encephalitis virus Beijing infected in high viral dose challenge C57BL/6 mouse model assessed as average day of death at 4 mg/kg/day, ip twice daily for 9 days administered 1 day before infection measured after 28 days post infection; format: functional; conditions: route intraperitoneal
[13] = tested on: Japanese encephalitis virus; assay: Antiviral activity against Japanese encephalitis virus Beijing infected in high viral dose challenge C57BL/6 mouse model assessed as average day of death at 5 mg/kg/day, ip twice daily for 9 days administered 1 day before infection measured after 28 days post infection; format: functional; conditions: route intraperitoneal
Punta Toro virus = assay: Antiviral activity against Punta Toro virus Adames infected in african green monkey Vero cells assessed as inhibition of virus-induced cytopathic effect by MTT assay; format: functional, organism-based
[14] = Therapeutic index, ratio of TC50 for african green monkey Vero cells to IC50 for Japanese encephalitis virus Nakayama; format: cell-based; conditions: read-out: TI
Yellow fever virus = assay: Antiviral activity against Yellow fever virus Ashibi infected in african green monkey Vero cells assessed as inhibition of virus-induced cytopathic effect by MTT assay; format: functional, organism-based; conditions: Yellow fever virus, Ashibi, Vero; read-out: IC50
Mus musculus [15] = assay: Toxicity in C57BL/6 mouse assessed as change in body weight at 3 mg/kg/day, ip twice daily for 9 days administered 1 day before infection measured after 28 days post infection; format: organism-based; design: route intraperitoneal; conditions: in vivo, 672 h
dengue virus type 4 = assay: Antiviral activity against Dengue virus type 4 infected in african green monkey Vero cells after 6 days by plaque reduction assay; format: functional, organism-based; conditions: Dengue virus, Vero, 144 h; read-out: IC50
[16] = Therapeutic index, ratio of TC50 for african green monkey Vero cells to IC50 for Yellow fever virus Ashibi; format: cell-based; conditions: read-out: TI
[17] = tested on: Japanese encephalitis virus; assay: Antiviral activity against Japanese encephalitis virus Beijing infected in high viral dose challenge C57BL/6 mouse model assessed inhibition of virus-induced mortality at 4 mg/kg/day, ip twice daily for 9 days administered 1 day before infection measured after 28 days post infection; format: functional, organism-based
[18] = tested on: Japanese encephalitis virus; assay: Antiviral activity against Japanese encephalitis virus Beijing infected in high viral dose challenge C57BL/6 mouse model assessed as average day of death at 6 mg/kg/day, ip twice daily for 9 days administered 1 day before infection measured after 28 days post infection; format: functional; conditions: route intraperitoneal
[19] = tested on: Japanese encephalitis virus; assay: Antiviral activity against Japanese encephalitis virus Nakayama infected in african green monkey Vero cells assessed as inhibition of virus-induced cytopathic effect by MTT assay; format: functional, organism-based; conditions: Japanese encephalitis virus, Nakayama, Vero; read-out: IC50
[20] = tested on: Japanese encephalitis virus; assay: Antiviral activity against Japanese encephalitis virus Beijing infected in high viral dose challenge C57BL/6 mouse model assessed as average day of death at 3 mg/kg/day, ip twice daily for 9 days administered 1 day before infection measured after 28 days post infection; format: functional; conditions: route intraperitoneal
[21] = tested on: Japanese encephalitis virus; assay: Antiviral activity against Japanese encephalitis virus Beijing infected in low viral dose challenge C57BL/6 mouse model assessed as average day of death at 6 mg/kg/day, sc once daily for 7 days administered 1 day before infection measured after 28 days post infection; format: functional; conditions: route subcutaneous
Mus musculus [22] = assay: Toxicity in C57BL/6 mouse assessed as mortality at 3 mg/kg/day, ip twice daily for 9 days; format: organism-based; design: route intraperitoneal; conditions: in vivo, 216 h
Mus musculus [23] = assay: Toxicity in C57BL/6 mouse assessed as mortality at 2 mg/kg/day, ip twice daily for 9 days; format: organism-based; design: route intraperitoneal; conditions: in vivo, 216 h
Mus musculus [24] = assay: Toxicity in C57BL/6 mouse assessed as change in body weight at 6 mg/kg/day, ip twice daily for 9 days administered 1 day before infection measured after 28 days post infection; format: organism-based; design: route intraperitoneal; conditions: in vivo, 672 h
[25] = tested on: Japanese encephalitis virus; assay: Antiviral activity against Japanese encephalitis virus Beijing infected in low viral dose challenge C57BL/6 mouse model assessed as average day of death at 4 mg/kg/day, sc once daily for 7 days administered 1 day before infection measured after 28 days post infection; format: functional; conditions: route subcutaneous
Rift Valley fever virus = assay: Antiviral activity against Rift Valley fever virus infected in african green monkey Vero cells after 6 days by plaque reduction assay; format: functional, organism-based; conditions: Rift Valley fever virus, Vero, 144 h; read-out: IC50
[26] = tested on: Sandfly fever Sicilian virus; assay: Antiviral activity against Sandfly fever sicilian virus infected in african green monkey Vero cells assessed as inhibition of virus-induced cytopathic effect by MTT assay; format: functional, organism-based; conditions: vero
[27] = Therapeutic index, ratio of TC50 for african green monkey Vero cells to IC50 for Rift valley fever virus; format: cell-based; conditions: read-out: TI
Mus musculus [28] = assay: Toxicity in C57BL/6 mouse assessed as change in body weight at 2 mg/kg/day, ip twice daily for 9 days administered 1 day before infection measured after 28 days post infection; format: organism-based; design: route intraperitoneal; conditions: in vivo, 672 h
[29] = tested on: Japanese encephalitis virus; assay: Antiviral activity against Japanese encephalitis virus Beijing infected in low viral dose challenge C57BL/6 mouse model assessed as inhibition of virus-induced mortality at 4 mg/kg/day, sc once daily for 7 days administered 1 day before infection measured after 28 days post infection; format: functional, organism-based
[30] = tested on: Japanese encephalitis virus; assay: Antiviral activity against Japanese encephalitis virus Beijing infected in low viral dose challenge C57BL/6 mouse model assessed as average day of death at 2 mg/kg/day, sc once daily for 7 days administered 1 day before infection measured after 28 days post infection; format: functional; conditions: route subcutaneous
[31] = tested on: Japanese encephalitis virus; assay: Antiviral activity against Japanese encephalitis virus Beijing infected in high viral dose challenge C57BL/6 mouse model assessed as average day of death at 8 mg/kg/day, ip twice daily for 9 days administered 1 day before infection measured after 28 days post infection; format: functional; conditions: route intraperitoneal
Mus musculus [32] = assay: Toxicity in C57BL/6 mouse assessed as mortality at 6 mg/kg/day, sc once daily for 7 days; format: organism-based; design: route subcutaneous; conditions: in vivo, 168 h
[33] = tested on: Japanese encephalitis virus; assay: Antiviral activity against Japanese encephalitis virus Beijing infected in low viral dose challenge C57BL/6 mouse model assessed as survival rate at 6 mg/kg/day, sc once daily for 7 days administered 1 day before infection measured after 28 days post infection relative to control; format: functional; conditions: route subcutaneous

O=C1N[C@H]2[C@H](O)[C@H](O)[C@@H](O)[C@H](O)[C@@H]2c2cc3c(c(O)c21)OCO3 [PANCRATISTATIN]
Activity (Mus musculus [1]): 1.4
Activity (Mus musculus [2]): 1.8
Activity (Mus musculus [3]): Non-toxic
Activity [4]: 30%
AD50 (Mus musculus [5]): 2.7 days
Activity (Mus musculus [6]): 1.5
Activity [7]: 12.6 days
selectivity ratio [8]: 8
Activity (Mus musculus [9]): Non-toxic
Activity [10]: 50%
Activity (Mus musculus [11]): Not Active
Activity [12]: 12.3 days
Activity [13]: 10.4 days
inhibition (INH) (Punta Toro virus): 25%
selectivity ratio [14]: 4.2
IC50 (Yellow fever virus): 0.016 µg/mL (≈ 0.0492 µM)
Activity (Mus musculus [15]): 2.1
IC50 (dengue virus type 4): 0.063 µg/mL (≈ 0.194 µM)
selectivity ratio [16]: 4.9
Activity [17]: inactive
Activity [18]: 11.8 days
IC50 [19]: 0.022 µg/mL (≈ 0.0676 µM)
Activity [20]: 12.6 days
Activity [21]: 15 days
Activity (Mus musculus [22]): Non-toxic
Activity (Mus musculus [23]): Non-toxic
Activity (Mus musculus [24]): 1.3
Activity [25]: 15.4 days
IC50 (Rift Valley fever virus): 0.16 µg/mL (≈ 0.492 µM)
IC50 [26]: Not Active
selectivity ratio [27]: 3.1
Activity (Mus musculus [28]): 2.8
Activity [29]: Active
Activity [30]: 16.3 days
Activity [31]: 12.9 days
Activity (Mus musculus [32]): Non-toxic
Activity [33]: 90%
